Measurements reported in patent US20250186442A1, “Obicetrapib and Ezetimibe Combination Treatment and Fixed Dose Pharmaceutical Compositions” (NewAmsterdam Pharma B.V., priority 2022, published 2025).

What was measured:
LDL-C = assay: ROSE2 phase 2b clinical trial - LDL-C; type: in vivo, human; settings: for LDL-C Change from Baseline to Day 28, Mean / LDL-C Change from Baseline to Day 28, Median / LDL-C Change from Baseline to Day 84, Mean / LDL-C Change from Baseline to Day 84, Median / LDL-C Day 28, Mean / LDL-C Day 28, Median / LDL-C Day 84, Mean / LDL-C Day 84, Median / LDL-C Percent Change from Baseline to Day 28 (%), Mean / LDL-C Percent Change from Baseline to Day 28 (%), Median / LDL-C Percent Change from Baseline to Day 84 (%), Mean / LDL-C Percent Change from Baseline to Day 84 (%), Median: obicetrapib 10 mg, ezetimibe 10 mg
Description: The primary objective of this study is to evaluate the effect of obicetrapib 10 mg+ezetimibe 10 mg combination therapy compared with placebo, when used as an adjunct to high-intensity statin therapy, on LDL-C at Day 84.
(§1) The secondary objectives of this study include the following, in hierarchical order: • To evaluate the effect of obicetrapib 10 mg monotherapy compared with placebo, when used as an adjunct to high-intensity statin therapy, on LDL-C at Day 84; • To evaluate the effect of obicetrapib 10 mg+ezetimibe 10 mg combination therapy compared with placebo, when used as an adjunct to high-intensity statin therapy, on ApoB at Day 84; and • To evaluate the effect of obicetrapib 10 mg monotherapy compared with placebo, when used as an adjunct to high-intensity statin therapy, on ApoB at Day 84.
(§2) This study will be a placebo-controlled, double-blind, randomized, Phase 2 study to evaluate the efficacy, safety, and tolerability of obicetrapib 10 mg, both in combination with ezetimibe 10 mg and as monotherapy, as an adjunct to high-intensity statin therapy. This study will take place at approximately 20 sites in the United States.
(§3) Up to 2 weeks after the Screening Visit, participants will return to the site on Day 1 (Visit 2) and confirm study eligibility before being randomized and beginning treatment. Approximately 114 eligible participants (38 participants per treatment group) will be randomized in a 1:1:1 ratio to 1 of the following treatment groups: • Combination therapy: Obicetrapib 10 mg+ezetimibe 10 mg (administered as one 10 mg obicetrapib tablet and one 10 mg ezetimibe capsule); • Obicetrapib monotherapy: Obicetrapib 10 mg (administered as one 10 mg obicetrapib tablet and 1 placebo capsule); or • Placebo (administered as 1 placebo tablet and 1 placebo capsule).
During the 12-week Treatment Period, the assigned study drugs will be administered by the participants orally with water, once daily on Day 1 to Day 84 at approximately the same time each morning. Participants will return to the site on Day 28 (+2 days), Day 84 (+2 days), and Day 112 (+2 days) for efficacy, safety, and pharmacokinetic (PK) assessments. Participants, Investigators, the Clinical Research Organization (CRO), and the Sponsor will be blinded to all lipid results from Day 1 (Visit 2) for the first participant until all enrolled participants complete the Day 84 (End of Treatment) visit or are withdrawn from the study, in order to protect blinding to treatment assignment.
The primary efficacy endpoint is the percent change from Day 1 to Day 84 in LDL-C for the obicetrapib 10 mg+ezetimibe 10 mg combination treatment group compared with the placebo group.
(§4) The secondary efficacy endpoints include the following, in hierarchical order: • Percent change from Day 1 to Day 84 in LDL-C for the obicetrapib 10 mg monotherapy • treatment group compared with the placebo group; • Percent change from Day 1 to Day 84 in ApoB for the obicetrapib 10 mg+ezetimibe 10 mg • combination treatment group compared with the placebo group; and • Percent change from Day 1 to Day 84 in ApoB for the obicetrapib 10 mg monotherapy treatment group compared with the placebo group.
The exploratory efficacy endpoints include the following: • Percent change from Day 1 to Day 84 in non-HDL-C, VLDL-C, HDL-C, TG, ApoE, Lp(a), and HDL-ApoE for the obicetrapib 10 mg+ezetimibe 10 mg combination treatment group compared with the placebo group and for the obicetrapib 10 mg monotherapy treatment group compared with the placebo group; and • Proportion of participants at Day 84 that achieve LDL-C<2.6 mmol/L (<100 mg/dL), LDL-C<1.8 mmol/L (<70 mg/dL), and LDL-C<1.3 mmol/L (<50 mg/dL) for the obicetrapib 10 mg+ezetimibe 10 mg combination treatment group compared with the placebo group and for the obicetrapib 10 mg monotherapy treatment group compared with the placebo group. […]

QTcF = settings: TA-8995-04; cited from earlier work
ApoB = assay: ROSE2 phase 2b clinical trial - ApoB; type: in vivo, human; settings: obicetrapib 10 mg, ezetimibe 10 mg
Description: as §1, §2, §3, §4
Blood samples for the lipid profile must be obtained under fasting conditions (ie, after the participant has fasted for approximately 10 hours). For the purposes of this study, fasting will be defined as nothing by mouth except water and any essential medications. If a participant is not fasting, the Investigator should reschedule the visit as soon as possible. LDL-C level will be calculated using the Friedewald equation unless TG≥400 mg/dL or LDL-C≤50 mg/dL; in both cases, LDL-C level will be measured directly by preparative ultracentrifugation, also referred to as beta quantification. Additionally, LDL-C will be measured by preparative ultracentrifugation, also referred to as beta quantification, at baseline (Visit 2) and at the end of the 12-week Treatment Period (Visit 4) for all participants.
The Modified ITT (mITT) Population will include all participants in the ITT Population who receive at least 1 dose of any study drug and have a baseline value for the LDL-C assessment. Any efficacy measurement obtained during the Safety Follow-up Visit (Visit 5) after a participant permanently discontinues the study drug or after a participant receives an excluded medication and/or procedure will be removed from the mITT analysis. Treatment classification will be based on the randomized treatment. The mITT Population will be used for the primary analysis of all efficacy endpoints.

## CCOC(=O)N1c2ccc(C(F)(F)F)cc2[C@@H](N(Cc2cc(C(F)(F)F)cc(C(F)(F)F)c2)c2ncc(OCCCC(=O)O)cn2)C[C@H]1CC [Obicetrapib, {4-[(2-{[3,5-bis(trifluoromethyl)benzyl][(2R,4S)-1-(ethoxycarbonyl)-2-ethyl-6-(trifluoromethyl)-1,2,3,4-tetrahydroquinolin-4-yl]amino}pyrimidin-5-yl)oxy]butanoic acid}]
LDL-C; Exploratory Population
  LDL-C Change from Baseline to Day 28, Mean: -43.0 mg/dL
  LDL-C Change from Baseline to Day 28, Median: -45.0 mg/dL
  LDL-C Change from Baseline to Day 84, Mean: -39.9 mg/dL
  LDL-C Change from Baseline to Day 84, Median: -38.5 mg/dL
  LDL-C Day 28, Mean: 57.6 mg/dL
  LDL-C Day 28, Median: 51.5 mg/dL
  LDL-C Day 84, Mean: 60.7 mg/dL
  LDL-C Day 84, Median: 55.5 mg/dL
  LDL-C Percent Change from Baseline to Day 28 (%), Mean: −43.59%
  LDL-C Percent Change from Baseline to Day 28 (%), Median: −43.90%
  LDL-C Percent Change from Baseline to Day 84 (%), Mean: −39.35%
  LDL-C Percent Change from Baseline to Day 84 (%), Median: −43.50%
LDL-C; ROSE2 phase 2b (NCT05266586), obicetrapib 10 mg with or without ezetimibe 10 mg
  median reduction in LDL-C: 39%
LDL-C; mITT Population
  LDL-C Change from Baseline to Day 28, Mean: -33.2 mg/dL
  LDL-C Change from Baseline to Day 28, Median: -35.0 mg/dL
  LDL-C Change from Baseline to Day 84, Mean: -21.3 mg/dL
  LDL-C Change from Baseline to Day 84, Median: -29.5 mg/dL
  LDL-C Day 28, Mean: 70.3 mg/dL
  LDL-C Day 28, Median: 56.0 mg/dL
  LDL-C Day 84, Mean: 82.7 mg/dL
  LDL-C Day 84, Median: 65.0 mg/dL
  LDL-C Percent Change from Baseline to Day 28 (%), Mean: −32.21%
  LDL-C Percent Change from Baseline to Day 28 (%), Median: −41.70%
  LDL-C Percent Change from Baseline to Day 84 (%), Mean: −18.92%
  LDL-C Percent Change from Baseline to Day 84 (%), Median: −32.35%
QTcF
  effect on the QTcF: no effect
ApoB; Exploratory Population
  ApoB Change from Baseline to Day 28, Mean: -24.2 mg/dL
  ApoB Change from Baseline to Day 28, Median: -23.0 mg/dL
  ApoB Change from Baseline to Day 84, Mean: -20.5 mg/dL
  ApoB Change from Baseline to Day 84, Median: -21.5 mg/dL
  ApoB Day 28, Mean: 65.4 mg/dL
  ApoB Day 28, Median: 64.5 mg/dL
  ApoB Day 84, Mean: 69.1 mg/dL
  ApoB Day 84, Median: 65.0 mg/dL
  ApoB Percent Change from Baseline to Day 28 (%), Mean: −26.00%
  ApoB Percent Change from Baseline to Day 28 (%), Median: −26.00%
  ApoB Percent Change from Baseline to Day 84 (%), Mean: −21.73%
  ApoB Percent Change from Baseline to Day 84 (%), Median: −24.20%
ApoB; mITT Population
  ApoB Change from Baseline to Day 28, Mean: -18.9 mg/dL
  ApoB Change from Baseline to Day 28, Median: -20.0 mg/dL
  ApoB Change from Baseline to Day 84, Mean: -10.4 mg/dL
  ApoB Change from Baseline to Day 84, Median: -14.5 mg/dL
  ApoB Day 28, Mean: 73.4 mg/dL
  ApoB Day 28, Median: 66.0 mg/dL
  ApoB Day 84, Mean: 82.4 mg/dL
  ApoB Day 84, Median: 72.0 mg/dL
  ApoB Percent Change from Baseline to Day 28 (%), Mean: −19.16%
  ApoB Percent Change from Baseline to Day 28 (%), Median: −23.10%
  ApoB Percent Change from Baseline to Day 84 (%), Mean: −9.50%
  ApoB Percent Change from Baseline to Day 84 (%), Median: −17.35%
